This note sets out measurements from US20230135093A1, “TRIAZOLYL DERIVATIVES AS GABA A ALPHA5 PAM” (Hoffmann-La Roche Inc., priority 2020, published 2023).

pKi: −log10 of the molar value.

Experiment [1] concerns the target T1, h-GABA-A α5β3γ2 (Homo sapiens, UniProt P18507+P31644).
T1 construct: expressed in transfected cells; host or cells: Xenopus laevis oocytes, micro-injected with subunit RNA
The experiment can be described thus: [3H]flumazenil competition binding assay on membranes of HEK293 cells expressing GABAA receptors. Conditions: Table 1; displacement of [3H]-Flumazenil (0.5 nM), HEK293 cells expressing human receptors, means of two determinations. The essentials:
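Competition for [3H]flumazenil (0.5 nM for α5 subunits) was measured at equilibrium (1 h, 4 °C, Krebs-tris buffer pH 7.5) on transiently transfected HEK293 membranes bearing human α5β3γ2 receptors, with 10^−5 M diazepam defining nonspecific binding. Ki values were derived from filtration and scintillation counting, averaged over duplicates.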

Experiment [2] concerns the target T1, h-GABA-A α5β3γ2. As to the kind of experiment: Two-electrode voltage clamp electrophysiology in Xenopus oocytes expressing GABAA receptors (modulation of GABA EC20 current). The format is cell-based. Conditions: Table 1; for Efficacy (GABA) %: % modulation of GABA EC20 = 100*(Fold increase-1); for Fold increase h-GABA-A α5β3γ2 oocyte: Xenopus oocytes, GABA EC20, test compound at approximatively 30 fold its Ki. The essentials: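 GABA EC20 currents in human α5β3γ2-expressing Xenopus oocytes, voltage-clamped at −80 mV (room temperature, pH 7.4), measured with and without compound at ~30× Ki applied 0.5 min into the second GABA pulse. % modulation = 100×(fold increase−1), taken from the extremum of the current ratio trace; at least 3 oocytes per concentration.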

On h-GABA-A α5β3γ2 [1], `C[C@@H]1CN(c2cnn(Cc3c(-c4ccc(Cl)cc4F)nnn3C)c(=O)c2)CCO1` [Example 46, 2-((5-(4-chloro-2-fluoro-phenyl)-3-methyl-triazol-4-yl)methyl)-5-((2R)-2-methylmorpholin-4-yl)pyridazin-3-one] showed a pKi of 8.80. Besides, at h-GABA-A α5β3γ2 [2], the “Efficacy (GABA) %” value stood at 86% and the “Fold increase h-GABA-A α5β3γ2 oocyte” value is 1.86.
At h-GABA-A α5β3γ2 [1], `Cc1nnn(-c2ccc(Cl)cc2F)c1Cn1ncc(N2CCO[C@@H](C)C2)cc1=O` [Example 35, 2-[[3-(4-chloro-2-fluoro-phenyl)-5-methyl-triazol-4-yl]methyl]-5-[(2S)-2-methylmorpholin-4-yl]pyridazin-3-one] had a pKi of 7.98. Besides, at h-GABA-A α5β3γ2 [2], the “Efficacy (GABA) %” value came to 130% and the “Fold increase h-GABA-A α5β3γ2 oocyte” value amounted to 2.3.
The matching figures for `CCOC1CN(c2cnn(Cc3c(-c4ccc(Cl)cc4)nnn3C)c(=O)c2)C1` [Example 41, 2-[[5-(4-chlorophenyl)-3-methyl-triazol-4-yl]methyl]-5-(3-ethoxyazetidin-1-yl)pyridazin-3-one]: 7.42, 47% and 1.47.
As to `Cn1nnc(-c2ccc(Cl)cc2F)c1Cn1ncc(N2CCN(C(=O)C3CC3)CC2)cc1=O` [Example 21, 2-[[5-(4-chloro-2-fluoro-phenyl)-3-methyl-triazol-4-yl]methyl]-5-[4-(cyclopropanc-carbonyl)piperazin-1-yl]pyridazin-3-one], the negative logarithm of the Ki (pKi) on h-GABA-A α5β3γ2 [1] was 8.06. At h-GABA-A α5β3γ2 [2], the “Efficacy (GABA) %” value came to 140% and the “Fold increase h-GABA-A α5β3γ2 oocyte” value is recorded as 2.4.
`Cn1nnc(-c2ccc(Cl)cc2)c1Cn1ncc(N2CC(OCC(F)F)C2)cc1=O` [Example 60, 2-[[5-(4-chlorophenyl)-3-methyl-triazol-4-yl]methyl]-5-[3-(2,2-difluoro-ethoxy)azetidin-1-yl]pyridazin-3-one] showed a negative logarithm of the Ki (pKi) at h-GABA-A α5β3γ2 [1] of 7.35. At h-GABA-A α5β3γ2 [2], the “Efficacy (GABA) %” value is 76% and the “Fold increase h-GABA-A α5β3γ2 oocyte” value amounted to 1.76.
For the compound `CCn1nnc(-c2ccc(Cl)cc2F)c1Cn1ncc(N2CC(Oc3cccnn3)C2)cc1=O` [Example 102, 2-[[5-(4-chloro-2-fluoro-phenyl)-3-ethyl-triazol-4-yl]methyl]-5-(3-pyridazin-3-yloxyazetidin-1-yl)pyridazin-3-one], the pKi on h-GABA-A α5β3γ2 [1] was 7.69. Besides, on h-GABA-A α5β3γ2 [2], the “Efficacy (GABA) %” value is reported as 164% and the “Fold increase h-GABA-A α5β3γ2 oocyte” value was 2.64.
Turning to `COc1ncccc1N1CCN(c2cnn(Cc3c(C)nnn3-c3ccc(Cl)cc3F)c(=O)c2)CC1` [Example 39, 2-[[3-(4-chloro-2-fluoro-phenyl)-5-methyl-triazol-4-yl]methyl]-5-[4-(2-methoxy-3-pyridyl)piperazin-1-yl]pyridazin-3-one], the pKi on h-GABA-A α5β3γ2 [1] is 7.94. Besides, at h-GABA-A α5β3γ2 [2], the “Efficacy (GABA) %” value is listed as 108% and the “Fold increase h-GABA-A α5β3γ2 oocyte” value amounted to 2.08.
Compound `COc1ncc(-c2cnn(Cc3c(-c4ccc(C)nc4)nnn3C)c(=O)c2)cc1Cl` [Example 82, 5-(5-chloro-6-methoxy-3-pyridyl)-2-((3-methyl-5-(6-methyl-3-pyridyl)triazol-4-yl)methyl)pyridazin-3-one] gave a negative logarithm of the Ki (pKi) on h-GABA-A α5β3γ2 [1] of 7.51. At h-GABA-A α5β3γ2 [2], the “Efficacy (GABA) %” value was 236% and the “Fold increase h-GABA-A α5β3γ2 oocyte” value was found to be 3.36.
Compound `C[C@H]1CN(c2cnn(Cc3c(-c4ccc(Cl)cc4F)nnn3C)c(=O)c2)CCO1` [Example 45, 2-((5-(4-chloro-2-fluoro-phenyl)-3-methyl-triazol-4-yl)methyl)-5-((2S)-2-methylmorpholin-4-yl)pyridazin-3-one] gave a pKi at h-GABA-A α5β3γ2 [1] of 8.85. At h-GABA-A α5β3γ2 [2], the “Efficacy (GABA) %” value was 115% and the “Fold increase h-GABA-A α5β3γ2 oocyte” value is given as 2.15.
`Cn1nnc(-c2ccc(C(F)(F)F)cc2F)c1Cn1ncc(N2CC(Oc3cnccn3)C2)cc1=O` [Example 89, 2-[[5-[2-fluoro-4-(trifluoromethyl)phenyl]-3-methyl-triazol-4-yl]methyl]-5-(3-pyrazin-2-yloxyazetidin-1-yl)pyridazin-3-one] showed a negative logarithm of the Ki (pKi) at h-GABA-A α5β3γ2 [1] of 8.03. Moreover, on h-GABA-A α5β3γ2 [2], the “Efficacy (GABA) %” value turned out to be 76% and the “Fold increase h-GABA-A α5β3γ2 oocyte” value turned out to be 1.76.
The compound `COc1cc(-c2cnn(Cc3c(-c4ccc(C)nc4)nnn3C)c(=O)c2)ccn1` [Example 81, 5-(2-methoxy-4-pyridyl)-2-((3-methyl-5-(6-methyl-3-pyridyl)triazol-4-yl)methyl)pyridazin-3-one] showed a negative-log Ki (pKi) on h-GABA-A α5β3γ2 [1] of 7.70. In addition, at h-GABA-A α5β3γ2 [2], the “Efficacy (GABA) %” value was 110% and the “Fold increase h-GABA-A α5β3γ2 oocyte” value amounted to 2.1.
The compound `Cn1nnc(-c2ccc(Cl)cc2F)c1Cn1ncc(N2CC(Oc3ccc(Cl)nc3)C2)cc1=O` [Example 52, 2-[[5-(4-chloro-2-fluoro-phenyl)-3-methyl-triazol-4-yl]methyl]-5-[3-[(6-chloro-3-pyridyl)oxy]azetidin-1-yl]pyridazin-3-one] had a negative-log Ki (pKi) at h-GABA-A α5β3γ2 [1] of 8.39. At h-GABA-A α5β3γ2 [2], the “Efficacy (GABA) %” value turned out to be 55% and the “Fold increase h-GABA-A α5β3γ2 oocyte” value was 1.55.
Take `CCn1nnc(-c2ccc(Cl)cc2F)c1Cn1ncc(N2CC(OC3CCC3)C2)cc1=O` [Example 85, 2-[[5-(4-chloro-2-fluoro-phenyl)-3-ethyl-triazol-4-yl]methyl]-5-[3-(cyclobutoxy)azetidin-1-yl]pyridazin-3-one]: at h-GABA-A α5β3γ2 [1], the negative logarithm of the Ki (pKi) was 7.73. On h-GABA-A α5β3γ2 [2], the “Efficacy (GABA) %” value is 143% and the “Fold increase h-GABA-A α5β3γ2 oocyte” value is 2.43.
The compound `CCOC1CN(c2cnn(Cc3c(-c4ccc(Cl)cc4F)nnn3C)c(=O)c2)C1` [Example 27, 2-[[5-(4-chloro-2-fluoro-phenyl)-3-methyl-triazol-4-yl]methyl]-5-(3-ethoxyazetidin-1-yl)pyridazin-3-one] showed a negative logarithm of the Ki (pKi) at h-GABA-A α5β3γ2 [1] of 8.09. On h-GABA-A α5β3γ2 [2], the “Efficacy (GABA) %” value was 69% and the “Fold increase h-GABA-A α5β3γ2 oocyte” value came to 1.69.
`Cn1nnc(-c2ccc(Cl)cc2F)c1Cn1ncc(N2CC(Oc3cccnn3)C2)cc1=O` [Example 79, 2-((5-(4-chloro-2-fluoro-phenyl)-3-methyl-triazol-4-yl)methyl)-5-(3-pyridazin-3-yloxyazetidin-1-yl)pyridazin-3-one]: the negative logarithm of the Ki (pKi) at h-GABA-A α5β3γ2 [1] was 7.96. For the same compound, on h-GABA-A α5β3γ2 [2], the “Efficacy (GABA) %” value turned out to be 88% and the “Fold increase h-GABA-A α5β3γ2 oocyte” value is 1.88.
For `CCOc1ncc(-c2cnn(Cc3c(-c4ccc(Cl)cc4F)nnn3C)c(=O)c2)cc1C` [Example 66, 2-((5-(4-chloro-2-fluoro-phenyl)-3-methyl-triazol-4-yl)methyl)-5-(6-ethoxy-5-methyl-3-pyridyl)pyridazin-3-one], the pKi on h-GABA-A α5β3γ2 [1] was 7.72. For the same compound, at h-GABA-A α5β3γ2 [2], the “Efficacy (GABA) %” value came to 143% and the “Fold increase h-GABA-A α5β3γ2 oocyte” value was 2.43.
For the compound `COc1ncc(-c2cnn(Cc3c(C)nnn3-c3ccc(Cl)cc3F)c(=O)c2)cc1Cl` [Example 68, 2-((3-(4-chloro-2-fluoro-phenyl)-5-methyl-triazol-4-yl)methyl)-5-(5-chloro-6-methoxy-3-pyridyl)pyridazin-3-one], the negative-log Ki (pKi) at h-GABA-A α5β3γ2 [1] is 7.49. At h-GABA-A α5β3γ2 [2], the “Efficacy (GABA) %” value was determined as 130% and the “Fold increase h-GABA-A α5β3γ2 oocyte” value came out at 2.3.
Compound `Cn1nnc(-c2ccc(Cl)cc2F)c1Cn1ncc(N2CCN(C3CC3)CC2)cc1=O` [Example 17, 2-[[5-(4-chloro-2-fluoro-phenyl)-3-methyl-triazol-4-yl]methyl]-5-(4-cyclopropyl-piperazin-1-yl)pyridazin-3-one] gave a pKi at h-GABA-A α5β3γ2 [1] of 7.92. At h-GABA-A α5β3γ2 [2], the “Efficacy (GABA) %” value is given as 75% and the “Fold increase h-GABA-A α5β3γ2 oocyte” value turned out to be 1.75.
Compound `Cn1nnc(-c2ccc(C(F)(F)F)cc2F)c1Cn1ncc(N2CC(OC3CCC3)C2)cc1=O` [Example 77, 5-[3-(cyclo-butoxy)azetidin-1-yl]-2-[[5-[2-fluoro-4-(trifluoro-methyl)phenyl]-3-methyl-triazol-4-yl]methyl]pyridazin-3-one] had a negative-log Ki (pKi) at h-GABA-A α5β3γ2 [1] of 7.74. At h-GABA-A α5β3γ2 [2], the “Efficacy (GABA) %” value was 66% and the “Fold increase h-GABA-A α5β3γ2 oocyte” value is 1.66.
The matching figures for `CO[C@@H]1COC2(C1)CN(c1cnn(Cc3c(-c4ccc(Cl)cc4F)nnn3C)c(=O)c1)C2` [Example 32, (S)-2-((4-(4-chloro-2-fluorophenyl)-1-methyl-1H-1,2,3-triazol-5-yl)methyl)-5-(7-methoxy-5-oxa-2-azaspiro[3.4]octan-2-yl)pyridazin-3(2H)-one]: 7.33, 98% and 1.98.
On h-GABA-A α5β3γ2 [1], `CCc1nccn1C1CCN(c2cnn(Cc3c(C)nnn3-c3ccc(Cl)cc3F)c(=O)c2)CC1` [Example 47, 2-[[3-(4-chloro-2-fluoro-phenyl)-5-methyl-triazol-4-yl]methyl]-5-[4-(2-ethylimidazol-1-yl)-1-piperidyl]pyridazin-3-one] gave a pKi of 7.88. On h-GABA-A α5β3γ2 [2], the “Efficacy (GABA) %” value is 130% and the “Fold increase h-GABA-A α5β3γ2 oocyte” value came to 2.3.
At h-GABA-A α5β3γ2 [1], `Cc1nnn(-c2ccc(Cl)cc2F)c1Cn1ncc(-c2ccnc(C(F)(F)F)c2)cc1=O` [Example 57, 2-((3-(4-chloro-2-fluoro-phenyl)-5-methyl-triazol-4-yl)methyl)-5-(2-(trifluoromethyl)-4-pyridyl)pyridazin-3-one] gave a pKi of 7.37. In addition, at h-GABA-A α5β3γ2 [2], the “Efficacy (GABA) %” value was 64% and the “Fold increase h-GABA-A α5β3γ2 oocyte” value turned out to be 1.64.
For `Cn1nnc(-c2ccc(Cl)cc2)c1Cn1ncc(N2CC(OCC(F)(F)F)C2)cc1=O` [Example 59, 2-[[5-(4-chlorophenyl)-3-methyl-triazol-4-yl]methyl]-5-[3-(2,2,2-trifluoro-ethoxy)azetidin-1-yl]pyridazin-3-one], in that order: 7.43, 81% and 1.81.
